Structures can show the parent of a compound that is named as a salt. Where two headings read alike, the source gives them in different places.
How the values were obtained:
[1] = system: MDA-MB-231 breast cancer cell lines; test: Evaluation of inhibition on cell growth (MTS); format: cell-based; settings: Homo sapiens, MDA-MB-231, 120 hours
Procedure, shortened: (§1)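 Cells seeded at 3,000˜5,000 cells/100 μL, grown 24 h at 37° C (MDA-MB-231 under atmospheric conditions), then exposed to 10 μM˜0.1 nM compound. MDA-MB-231 cultured 120 h, read by MTS at 490 nm; fibroblasts cultured 72 h, TCA-fixed, SRB-stained, read at 540 nm. GI50 from growth relative to untreated and medium-only cells.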

[2] = Toxicity to normal cells (SRB); format: cell-based, mouse; settings: mouse, Balb/c3t3 fibroblasts (normal cell line), read-out: BalB/C (GI50)
Protocol: MDA-MB-231 breast cancer cell lines (ATCC #HTB-26) and BxPC-3 pancreas cancer cell lines (ATCC #CRL 1687), which have been reported to express XIAP, were obtained from ATCC (American type culture collection; Rockville, Md.). MDA-MB-231 cell lines were incubated in L-15 medium supplemented with 10% FBS and 1% penicillin/streptomycin (Gibco BRL) at a T-75 cm^2 growth flask. In addition, BxPC-3 cell lines were incubated in RPMI medium supplemented with 10% FBS and 1% penicillin/streptomycin. For experiments of toxicity to normal cells, fibroblasts Hs27 (ATCC #CRL 1634) and Balb/c3t3 (ATCC #CCL 163) were used. The various cell lines were transferred into 96-well plates at a density of 3,000˜5,000 cells/100 μL, and cultured for 24 hours under conditions of 37° C., 5% CO2, 95% air, and 100% relative humidity (MDA-MB-231 cells were cultured under atmospheric conditions). The cells were treated with 10 μM˜0.1 nM of test compounds, and MDA-MB-231, BxPC-3, and normal cell lines were cultured for 120, 96, and 72 hours, respectively.
Cell viabilities of MDA-MB-231 cell lines were measured at an absorbance of 490 nm using CellTiter 96™ AQueous One Solution Cell proliferation Assay (MTS, Promega), and cell viabilities of BxPC-3 and normal cell lines were measured by fixing cells with 10% TCA (trichloroacetic acid), staining with SRB (sulforhodamine B), and measuring at 540 nm. From the values, GI50 values in which test compounds reduce the growth of cancer cells by 50% were calculated. The growth rates of cancer cells were calculated from following Equation 1 or 2. [(Ti−Tz)/(C−Tz)]×100 (for Ti>=Tz) [Equation 1] [(Ti−Tz)/Tz]×100 (for Ti<Tz) [Equation 2] In Equations 1 and 2, Tz refers to a density of untreated cells, which is an absorbance in 0% cell growth groups. C refers to a density of cells cultured by adding only medium, and Ti refers to a density of cells treated with test compounds.
GI50 value is the concentration of a test compound when the value of Equation 1 is 50, which indicates the concentration of test compound required to inhibit the cancer cells by 50%. On each measurement, test compounds were compared with a control.
The activity value of each compound (GI50 value) was shown in Table 5, and an IAP antagonist was used as a control.
In the activity measurement on MDA-MB-231 breast cancer cell lines, the values were represented as “***” for 100 nM or less, “**” for over 100 nM to below 1,000 nM, and “*” for 1,000 nM or more. In the measurement on normal cell lines, Balb/C and Hs27, the values were represented as “+++” for 10,000 nM or more, “++” for over 5,000 nM to below 10,000 nM, and “+” for 5,000 nM or less.

[3] = Toxicity to normal cells (SRB); format: cell-based, human; settings: human, Hs27 fibroblasts (normal cell line)
Procedure, shortened: as §1

| GI50 [1] [µM] | SMILES | GI50 at 72 h [2] [µM] | GI50 at 72 h [3] [µM] |
| --- | --- | --- | --- |
| ≤ 0.1 | CN[C@@H](C)C(=O)N[C@H](C(=O)N1CCC[C@H]1C(=O)Nc1cc2c(Nc3ccc(Cl)cc3F)ncnc2cc1OC)C(C)(C)C [Example 29, (S)—N-(4-(4-chloro-2-fluorophenylamino)-7-methoxyquinazolin-6-yl)-1-((S)-3,3-dimethyl-2-((S)-2-(methylamino)propanamido)butanoyl)pyrrolidine-2-carboxamide hydrochloride] | > 10 | > 10 |
| ≤ 0.1 | CN[C@@H](C)C(=O)N[C@H](C(=O)N1CCC[C@H]1C(=O)Nc1cc2c(Nc3ccc(Cl)cc3Cl)ncnc2cc1OC)C(C)(C)C [Example 58, (S)—N-(4-(2,4-dichlorophenylamino)-7-methoxyquinazolin-6-yl)-1-((S)-3,3-dimethyl-2-((S)-2-(methylamino)propanamido)butanoyl)pyrrolidine-2-carboxamide hydrochloride] | > 10 | > 10 |
| 0.1 to 1 | CN[C@@H](C)C(=O)N[C@H](C(=O)N1CCCC[C@H]1C(=O)Nc1cc2c(Nc3ccc(F)c(Cl)c3F)ncnc2cc1OC)C(C)(C)C [Example 25] | > 10 | > 10 |
| 0.1 to 1 | CN[C@@H](C)C(=O)N[C@H](C(=O)N1CC[C@H]1C(=O)Nc1cc2c(Nc3ccc(F)c(Cl)c3F)ncnc2cc1OC)C(C)(C)C [Example 20, (S)—N-(4-(3-chloro-2,4-difluorophenylamino)-7-methoxyquinazolin-6-yl)-1-((S)-3,3-dimethyl-2-((S)-2-(methylamino)propanamido)butanoyl)azetidine-2-carboxamide hydrochloride] | > 10 | > 10 |
| ≤ 0.1 | CN[C@@H](C)C(=O)N[C@H](C(=O)N1CCC[C@H]1C(=O)Nc1cc2c(Nc3ccc(Oc4ccccc4)cc3)ncnc2cc1OC)C(C)(C)C [Example 40, (S)-1-((S)-3,3-dimethyl-2-((S)-2-(methylamino)propanamido)butanoyl)-N-(7-methoxy-4-(4-phenoxyphenylamino)quinazolin-6-yl)pyrrolidine-2-carboxamide hydrochloride] | > 10 | > 10 |
| 0.1 to 1 | CCN1CCN(c2ccc(Nc3ncnc4cc(OC)c(NC(=O)[C@@H]5CCCN5C(=O)[C@@H](NC(=O)[C@H](C)NC)C(C)(C)C)cc34)cc2)CC1 [Example 60, (S)-1-((S)-3,3-dimethyl-2-((S)-2-(methylamino)propanamido)butanoyl)-N-(4-(4-(4-ethylpiperazin-1-yl)phenylamino)-7-methoxyquinazolin-6-yl)pyrrolidine-2-carboxamide] | > 10 | > 10 |
| ≤ 0.1 | CN[C@@H](C)C(=O)N[C@H](C(=O)N1CCC[C@H]1C(=O)Nc1cc2c(Nc3ccccn3)ncnc2cc1OC)C(C)(C)C [Example 33, (S)-1-((S)-3,3-dimethyl-2-((S)-2-(methylamino)propanamido)butanoyl)-N-(7-methoxy-4-(pyridin-2-ylamino)quinazolin-6-yl)pyrrolidine-2-carboxamide] | > 10 | > 10 |
| ≤ 0.1 | CN[C@@H](C)C(=O)N[C@H](C(=O)N1CCC[C@H]1C(=O)Nc1cc2c(Nc3cccc4ncccc34)ncnc2cc1OC)C(C)(C)C [Example 63, (S)-1-((S)-3,3-dimethyl-2-((S)-2-(methylamino)propanamido)butanoyl)-N-(7-methoxy-4-(quinoline-5-ylamino)quinazolin-6-yl)pyrrolidine-2-carboxamide hydrochloride] | > 10 | > 10 |
| ≤ 0.1 | CN[C@@H](C)C(=O)N[C@H](C(=O)N1CCC[C@H]1C(=O)Nc1cc2c(Nc3ccccc3Br)ncnc2cc1OC)C(C)(C)C [Example 22, (S)—N-(4-(2-bromophenylamino)-7-methoxyquinazolin-6-yl)-1-((S)-3,3-dimethyl-2-((S)-2-(methylamino)propanamido)butanoyl)pyrrolidine-2-carboxamide hydrochloride] | > 10 | > 10 |

More lines, now with the values behind:

| SMILES | GI50 [1] [µM] | GI50 at 72 h [2] [µM] | GI50 at 72 h [3] [µM] |
| --- | --- | --- | --- |
| CCN1CCN(c2ccc(Nc3ncnc4cc(OC)c(NC(=O)[C@@H]5CCCN5C(=O)[C@@H](NC(=O)[C@H](C)NC)C(C)(C)C)cc34)cc2C(F)(F)F)CC1 [Example 70, (S)-1-((S)-3,3-dimethyl-2-((S)-2-(methylamino)propanamido)butanoyl)-N-(4-(4-(4-ethylpiperazin-1-yl)-3-(trifluoromethyl)phenylamino)-7-methoxyquinazolin-6-yl)pyrrolidine-2-carboxamide dihydrochloride] | ≤ 0.1 | > 10 | > 10 |
| COc1cc2ncnc(Nc3ccc(F)c(Cl)c3F)c2cc1NC(=O)[C@@H]1CCCN1C(=O)[C@@H](NC(=O)[C@H](C)N)C(C)(C)C [Example 12, (S)-1-((S)-2-((S)-2-aminopropanamido)-3,3-dimethylbutanoyl)-N-(4-(3-chloro-2,4-difluorophenylamino)-7-methoxyquinazolin-6-yl)pyrrolidine-2-carboxamide hydrochloride] | ≥ 1 | > 10 | > 10 |
| CN[C@@H](C)C(=O)N[C@H](C(=O)N1CCC[C@H]1C(=O)Nc1cc2c(Nc3ccc(F)cc3)ncnc2cc1OC)C(C)(C)C [Example 55, (S)-1-((S)-3,3-dimethyl-2-((S)-2-(methylamino)propanamido)butanoyl)-N-(4-(4-fluorophenylamino)-7-methoxyquinazolin-6-yl)pyrrolidine-2-carboxamide] | ≤ 0.1 | > 10 | > 10 |
| CN[C@@H](C)C(=O)N[C@H](C(=O)N1CCC[C@H]1C(=O)Nc1cc2c(Nc3ccc4c(c3)OCO4)ncnc2cc1OC)C(C)(C)C [Example 61, (S)—N-(4-(benzo[d][1,3]dioxol-5-ylamino)-7-methoxyquinazolin-6-yl)-1-((S)-3,3-dimethyl-2-((S)-2-(methylamino)propanamido)butanoyl)pyrrolidine-2-carboxamide] | ≥ 1 | > 10 | > 10 |
| CN[C@@H](C)C(=O)N[C@H](C(=O)N1CCC[C@H]1C(=O)Nc1cc2c(Nc3ccncc3)ncnc2cc1OC)C(C)(C)C [Example 73, (S)-1-((S)-3,3-dimethyl-2-((S)-2-(methylamino)propanamido)butanoyl)-N-(7-methoxy-4-(pyridin-4-ylamino)quinazolin-6-yl)pyrrolidine-2-carboxamide hydrochloride] | ≤ 0.1 | > 10 | > 10 |
| CNc1ncnc2cc(OC)c(NC(=O)[C@@H]3CCCN3C(=O)[C@@H](NC(=O)[C@H](C)NC)C(C)(C)C)cc12 [Example 23, (S)-1-((S)-3,3-dimethyl-2-((S)-2-(methylamino)propanamido)butanoyl)-N-(7-methoxy-4-(methylamino)quinazolin-6-yl)pyrrolidine-2-carboxamide] | ≤ 0.1 | > 10 | > 10 |
| CN[C@@H](C)C(=O)N[C@H](C(=O)N1CCC[C@H]1C(=O)Nc1cc2c(Nc3ccc(Cl)cc3)ncnc2cc1OC)C(C)(C)C [Example 56, (S)—N-(4-(4-chlorophenylamino)-7-methoxyquinazolin-6-yl)-1-((S)-3,3-dimethyl-2-((S)-2-(methylamino)propanamido)butanoyl)pyrrolidine-2-carboxamide] | ≤ 0.1 | > 10 | > 10 |
